Results taken from patent publication US20260034200A1, “TOLEROGENIC PEPTIDES” (University of Birmingham, priority 2022, published 2026).
Blank lines part the entries; values can stand above or below the molecule they belong to. Ends that are not written are not given here.

How the values were obtained:
[1] = Solubility in PBS; format: physicochemical
Experimental: Peptides were synthesized by GL Biochem (Shanghai) Ltd or Genscript (Leiden, The Netherlands). Peptides were >90% purity, resuspended from lyophilised powder in either 100% v/v dimethyl sulfoxide (DMSO) for 30-mers or PBS for soluble peptides. GAD65 protein was synthesised by Biologics Corporation. Purified protein derivative (PPD; Prionics; 7600060) was used at 300 IU/mL. Keyhole limpet haemocyanin (KLH; ThermoFisher Scientific; 77600) was used at 20 μg/mL.
Iterations designed around the core minimal epitope included retention of non-critical residues and/or addition of multiple lysine residues to both the N- and C-termini (FIG. 3E). […] Although P10.5.C.6K contains only the critical core epitope with additional lysine residues, the re-inclusion of the single non-critical alanine at the C-terminus (P10.5.C+1.6K), increased the potency of the single-clone hybridoma response by 10-fold (FIG. 3F).

[2] = system: GAD65 P10-specific T-cell hybridomas; experiment: T-cell hybridoma screen with Priess cells as APCs, IL-2 ELISA; format: cell-based, mouse; details: for epitope mapping by hybridoma response: 15-mers and truncated peptides, hybridomas SC3 and SC22, 48 h co-culture
Experimental: HLA-DR4 transgenic mice were injected subcutaneously with Complete Freund's Adjuvant (CFA) and 100 μg of GAD65 P10 30-mer. After 10 days, splenocytes were isolated and re-stimulated with GAD65 P10 30-mer for a further 4-5 days before fusion with hypoxanthine-aminopterin-thymidine (HAT) sensitive BW5147 cells using polyethylene glycol (PEG). Fused hybridomas were expanded in HAT selection media before antigen-specific screening. Co-cultures of 1×10^5 hybridomas and 2×10^5 Priess cells (an Epstein-Barr Virus (EBV) transformed DR4 (DRB1*04:01) expressing human cell line (ECACC 86052111)) as antigen presenting cells (APCs) were incubated for 48 h in a 96-well plate with peptide, whole GAD65 protein, or media only. Antigen-specific responses were determined by IL-2 secretion into culture supernatant by ELISA assay (BioLegend 431004). Hybridomas that proliferated in response to both GAD65 protein and GAD65 30-mer were single cell cloned by limiting dilution.
Six 15-mers that spanned the parent 30-mer amino acid sequence were generated by 3 amino acid shifts from the N-terminus toward the C-terminus.

[3] = system: steady-state CD11c+ APCs; experiment: Steady state CD11c+ peptide binding assay; format: in vivo, HLA-DR4 transgenic mice; details: antigen added exogenously to the in vitro culture
Experimental: HLA-DR4 transgenic mice were injected subcutaneously with 80 μg of GAD65 P10.5.C+1.6K (GAD65 P10Sol) peptide, before isolation of CD11c^+ splenocytes 1 h later CD11c^+ positive selection kit (Miltenyi; 130-125-835). T-cell hybridoma responses were measured by secreted IL-2 after a 48 h co-culture of 0.5×10^5 CD11c^+ cells with 1×10^5 GAD65 P10-specific hybridomas with or without exogenous antigen added in vitro.
(§1) The next step was to test if GAD65 P10.5.C+1.6K (P10Sol; SEQ ID NO 23) could bind to: (i) MHC class II molecules without antigen processing and, (ii) to steady-state CD11c^+ APCs. These properties are good indicators of whether a peptide can induce tolerance and be characterised as an apitope (Shepard et al., 2021). Formaldehyde fixation of splenocytes inhibits antigen processing and so to test whether GAD65 P10Sol could bind directly to cell-surface MHC class II without antigen processing, GAD65 P10-specific hybridoma SC3 was co-cultured with fixed or non-fixed splenocytes from HLA-DR4 transgenic mice. […] To test whether P10Sol could bind to steady-state CD11c^+ APCs in vivo, HLA-DR4 transgenic mice were injected with 80 μg of P10Sol or PBS, with CD11c^+ splenocytes isolated 1 h later and co-cultured with GAD65 P10 hybridomas SC3 or SC22. […]

[4] = system: MHC class II molecules on fixed or non-fixed HLA-DR4 transgenic mouse splenocytes (hybridoma SC3 readout); experiment: Fixed APC T-cell hybridoma screen; format: cell-based; details: co-culture with formaldehyde fixed and non-fixed HLA-DR4 splenocytes, 48 h
Experimental: Splenocytes from HLA-DR4 transgenic mice were formaldehyde fixed by the following protocol performed at room temperature; 5 min incubation with 0.5% w/v formaldehyde in PBS at 1×10^6 cells/mL quenched by addition of an equal volume of 0.4 M glycine in PBS solution for a further 5 min, before three washes with cold PBS. T-cell hybridoma screens were set up using 1×10^5 hybridomas and either 2×10^5 formaldehyde fixed APCs or 2×10^5 non-fixed APCs for 48 h co-culture with stimulant or control and responses measured by IL-2 secretion.
as §1

[5] = molecular target: T1, HLA-DR4 MHC class II (HLA-DRA*0101, HLA-DRB1*0401) (human, UniProt P01903 26-254; P01911 30-266, limits assumed); experiment: IL-2 response of hybridoma SC3 with formaldehyde-fixed or non-fixed HLA-DR4 transgenic splenocytes
T1 construct: whole, on cells; On splenocytes or CD11c+ splenocytes of HLA-DR4 transgenic mice; also called MHCII; DR4 (DRB1*04:01)
T1 MHC II alpha: not shown
T1 MHC II beta: not shown
Source text: as §1, with “CD11c⁺” for “CD11c^+”, “mice. Response to whole GAD65 protein required antigen processing from non-fixed splenocytes, whereas both GAD65 P10 30-mer and GAD65 P10Sol (SEQ ID NO 23) induced strong IL-2 responses from hybridoma SC3 when co-cultured with both fixed and non-fixed splenocytes (FIG. 3G).” for “mice.”

[6] = molecular target: T1, HLA-DR4 MHC class II (HLA-DRA*0101, …); experiment: cell-based or functional assay
[7] = molecular target: TCRs of individuals with type 1 diabetes; experiment: cell-based or functional assay

- solubility in PBS [1]: highly soluble
Molecule: KKKWKLSGVERKKK [Peptide P10.5.C.6K, KKKWKLSGVERKKK]

Molecule: WKLSGVER [Peptide P10.5.C]
- epitope mapping by hybridoma response [2]: minimal core epitope

Molecule: KHKWKLSGVERANSV [P10.5 15-mer]
- epitope mapping by hybridoma response [2]: responsive 15-mer

Molecule: glutamate decarboxylase 65 (GAD65) [GAD65 protein, reference compound]
- IL-2 response of P10-specific hybridomas to CD11c+ cells from PBS injected mice [3]: observed
- hybridoma IL-2 response ([2]; hybridoma multi-clone 6 with HLA-DRB1*04:01 expressing APCs): could respond
- IL-2 response from hybridoma SC3 [4]: required antigen processing from non-fixed splenocytes

- solubility in PBS [1]: highly soluble
Molecule: KKKWKLSGVERAKKK [Peptide P10Sol, KKKWKLSGVERAKKK]

- binding result [5]: binds
B1: GAD65 P10 30-mer (peptide)
peptide: DAAWGGGLLMSRKHKWKLSGVERANSVTWN
notes: Synthetic 30-residue fragment of human GAD65

- potency of the single-clone hybridoma IL-2 response with Priess cells, against P10.5.C.6K (SEQ ID NO 22) [6]: 10 fold
- FAIM+ (CD25+ CD71+ CTVmid CD4 T-cell) response of T1D patient PBMCs; share of P10 30-mer responders that also responded to P10Sol [7]: 38%
B2: GAD65 P10.5.C+1.6K (P10Sol) (peptide)
peptide: KKKWKLSGVERAKKK
